According to patent US9592234B2, “Methods and compositions for stimulating neurogenesis and inhibiting neuronal degeneration using isothiazolopyrimidinones” (Neuronascent, Inc., priority 2007, dated 2017):

Legend:
[1] = test system: human neuronal progenitors cells; experiment: in vitro neurogenesis test; assay type: cell-based; conditions: MAP-2 staining on day 11; differentiation media; vehicle 0.2% DMSO in DMEM/F12
Procedure: The in vitro neurogenesis test was performed using human neuronal progenitors cells. By way of background, the human neuronal progenitor cells can be cultured in media and have the potential to produce mature functional neurons. The neurogenesis factor in the culture media can promote the number of the progenitor cells which differentiate into neurons. Indeed, it is a widely accepted in vitro model to test a chemical's neurogenetic property.
Cells were obtained as human neuronal progenitors from a commercial source and were grown for up to three passages or at any time differentiated to potentially produce mature functional neurons in culture. Following two passages to expand the cells, progenitors were seeded into multi-well microplates and the media were changed to differentiation media (minus serum and mitogen). Within 2 hrs of this media change, a vehicle, positive control or test compound were added to each well. Also, they were added with every further media change (50% volume change every other day). Control wells contained cells and vehicle (0.2% DMSO in DMEM/F12). […]
The cells were stained using MAP-2, a neuronal marker, on day 11. Then, each test compound was assessed for the ability to promote an increase in neuron number and compared with the positive control, leukemia inhibitory factor (LIF).

Human neurons = experiment: inhibition of neurodegeneration by hydrogen peroxide (Alamar Blue respiration); assay type: cell-based; conditions: hydrogen peroxide 50 uM for up to 6 hrs, FIG. 1
Procedure: Dysfunctional neurons were initiated using any of the above agents or using hydrogen peroxide at 1-100 μM concentration. Using a dye that measures metabolic activity of the cells, such as MTT or ALAMARBLUE®, we determined the reduction of respiratory capacity of the cells, which indicated neuron dysfunction. The ability of neurogenic agents to inhibit hydrogen peroxide-induced reduction in cellular respiration was used as a measure of inhibition of neuronal dysfunction, a potential step that lead to degeneration.
Certain compounds were further analyzed to determine their ability to inhibit neurodegeneration by hydrogen peroxide. Human neurons are treated with hydrogen peroxide (50 uM) for up to 6 hrs and then neuronal loss is measured using Alamar Blue respiration.

Row | SMILES | Effects of compounds on the increase in the neuron numbers compared with the vehicle control, % of Control [1] | loss of respiration (neuronal loss) when added along with hydrogen peroxide (Human neurons)
1 | COc1ccc(-c2nsc3c(=O)n(CCCN4CCOCC4)cnc23)cc1 [3-(4-Methoxyphenyl)-6-[3-(4-morpholinyl)propyl]-isothiazolo[4,5-d]pyrimidin-7-(6H)-one] | 115% | 
2 | CCN1CCCC1Cn1cnc2c(-c3ccc(OC)cc3)nsc2c1=O (stereo not shown) [3-(4-Methoxyphenyl)-6-[(1-ethylpyrrolidin-2-yl)methyl]-isothiazolo[4,5-d]pyrimidin-7(6H)-one] | 107% | 
3 | CCN1CCCC1Cn1cnc2c(-c3ccc(OC)cc3)nsc2c1=O (stereo not shown) [NNI-A, 6-((1-ethylpyrrolidin-2-yl)methyl)-3-(4-methoxyphenyl)isothiazolo[4,5-d]pyrimidin-7(6H)-one] |  | less loss of respiration
4 | CCN1CCCC1Cn1cnc2c(-c3ccc(F)cc3)nsc2c1=O (stereo not shown) [NNI-B, 6-((1-ethylpyrrolidin-2-yl)methyl)-3-(4-fluorophenyl)isothiazolo[4,5-d]pyrimidin-7(6H)-one] |  | less loss of respiration
